Read-outs that look alike come from different tables or passages of the source.
Columns and labels:
MCF7 (mammary carcinoma) = test: Tumor growth inhibitory activity (cytotoxicity), SRB method of Skehan et al, MCF7; assay type: cell-based, human; settings: read-out: IC50 MCF7 (breast)
Description: (§1) The results were obtained according to the methods of Skehan et al (See Skehan et al., J. Nat. Cancer Inst., 82, 1107 (1990)), as more fully described in the Examples. The resistance factor (R/S) shown in the table is a measure of the degree of resistance of a cell line against a taxoid compound. The resistance factor is a ratio of the cytoxicity of a taxoid compound against a drug-resistant cell line (R) as compared to its cytoxicity against a drug-sensitive cell line (S).
(§2) In the tables, lower numbers indicate higher potency (or greater activity). Paclitaxel was used as the standard for comparison. The data represent the mean values of at least three separate experiments.
(§3) Assessment of cell growth inhibition was determined according to the methods of Skehan et al (See Skehan et al., J. Nat. Cancer Inst., 82, 1107 (1990)). Briefly, cells were plated between 400 and 1200 cells/well in 96 well plates and incubated at 37° C. for 15-18 h prior to drug addition to allow attachment of cells. Compounds tested were solubilized in 100% DMSO and further diluted in RPMI-1640 containing 10 mM HEPES. Each cell line was treated with 10 concentrations of compounds (5 log range). After a 72 h incubation, 100 μL of ice-cold 50% TCA was added to each well and incubated for 1 h at 4° C. Plates were then washed 5 times with tap water to remove TCA, low-molecular-weight metabolites and serum proteins. Sulforhodamine B (SRB) (0.4%, 50 μL) was added to each well. Following a 5 minute incubation at room temperature, plates were rinsed 5 times with 0.1% acetic acid and air dried. Bound dye was solubilized with 10 mM Tris Base (pH 10.5) for 5 min on a gyratory shaker. Optical density was measured at 570 nm.
(§4) Data were fit with the Sigmoid-Emax concentration-effect model with non-linear regression, weighted by the reciprocal of the square of the predicted response (see Holford, N. H. G.; Scheiner, L. B., “Understanding the dose-effect relationship: Clinical applications of pharmaco-kinetic-pharmacodynamic models,” Clin. Pharmacokin., 6, 429-453 (1981)). The fitting software was developed by the Roswell Park Cancer Institute with Microsoft FORTRAN, and uses the Marquardt algorithm (see Marquardt, D. W., “An algorithm for least squares estimation of nonlinear parameters,” J. Soc. Ind. Appl. Math., 11, 431-441 (1963)) as adopted by Nash for the non-linear regression (see Nash, J. C., “Compact numerical method for computers: Linear algebra and function minimization,” John Wiley & Sons, New York, 1979).

[1] = system: MCF7-R (mammary carcinoma cells 250-fold resistant to paclitaxel); test: Tumor growth inhibitory activity (cytotoxicity), SRB method of Skehan et al, MCF7-R; assay type: cell-based, human; settings: for IC50: read-out: IC50 MCF7-R (breast); for R/S (resistance factor): ratio of cytotoxicity against drug-resistant MCF7-R (R) to drug-sensitive MCF7 (S)
Description: as §1, §2, §3, §4

[2] = Homo sapiens, MCF7, 72 h drug exposure, SRB, mean of at least three separate experiments
[3] = Homo sapiens, MCF7R, drug-resistant cell line, 72 h drug exposure, SRB, mean of at least three separate experiments
[4] = 72 h drug exposure, SRB, mean of at least three separate experiments
[5] = drug-resistant cell line, 72 h drug exposure, SRB, mean of at least three separate experiments

SMILES	IC50 (MCF7 (mammary carcinoma); [2]) [nM]	IC50 [1, 3] [nM]	R/S (resistance factor) [1]	IC50 (MCF7 (mammary carcinoma); [4]) [nM]	IC50 [1, 5] [nM]	IC50 (MCF7 (mammary carcinoma); Homo sapiens, MCF7, 72 h) [nM]	IC50 ([1]; Homo sapiens, MCF7R, 72 h) [nM]
COC(=O)O[C@H]1C(=O)[C@@]2(C)C([C@H](OC(=O)c3cccc(F)c3)[C@]3(O)C[C@H](OC(=O)[C@H](O)[C@H](C=C(F)F)NC(=O)OC(C)(C)C)C(C)=C1C3(C)C)[C@]1(OC(C)=O)CO[C@@H]1C[C@@H]2O (stereo partly drawn) [SB-T-12855-2, 3′-Dephenyl-3′-(2,2-difluorovinyl)-2-debenzoyl-2-(3-fluorobenzoyl)-10-methoxycarbonyldocetaxel]	0.12	1.85	11				
CC(=O)O[C@H]1C(=O)[C@@]2(C)[C@H]([C@H](OC(=O)c3ccccc3)[C@]3(O)C[C@H](OC(=O)[C@H](O)[C@@H](NC(=O)c4ccccc4)c4ccccc4)C(C)=C1C3(C)C)[C@]1(OC(C)=O)CO[C@@H]1C[C@@H]2O [Paclitaxel, paclitaxel, reference compound]	1.2	300	250				
CC(=O)O[C@H]1C(=O)[C@@]2(C)C([C@H](OC(=O)c3cccc(Cl)c3)[C@]3(O)C[C@H](OC(=O)[C@H](O)[C@H](C=C(F)F)NC(=O)OC(C)(C)C)C(C)=C1C3(C)C)[C@]1(OC(C)=O)CO[C@@H]1C[C@@H]2O (stereo partly drawn) [SB-T-12851-4, 3′-Dephenyl-3′-(2,2-difluorovinyl)-2-debenzoyl-2-(3-chlorobenzoyl)-10-acetyldocetaxel]	0.13	0.7	5.4				
COC(=O)O[C@H]1C(=O)[C@@]2(C)C([C@H](OC(=O)c3cccc(Cl)c3)[C@]3(O)C[C@H](OC(=O)[C@H](O)[C@H](C=C(F)F)NC(=O)OC(C)(C)C)C(C)=C1C3(C)C)[C@]1(OC(C)=O)CO[C@@H]1C[C@@H]2O (stereo partly drawn) [SB-T-12855-4, 3′-Dephenyl-3′-(2,2-difluorovinyl)-2-debenzoyl-2-(3-chlorobenzoyl)-10-methoxycarbonyldocetaxel]	0.099	1.15	12				
CC(=O)O[C@@]12CO[C@@H]1C[C@H](O)[C@@]1(C)C(=O)[C@H](OC(=O)C3CC3)C3=C(C)[C@@H](OC(=O)[C@H](O)[C@H](C=C(F)F)NC(=O)OC(C)(C)C)C[C@@](O)([C@@H](OC(=O)c4cccc(N=[N+]=[N-])c4)[C@H]21)C3(C)C [SB-T-12852-3, 3′-Dephenyl-3′-(2,2-difluorovinyl)-2-debenzoyl-2-(3-azidobenzoyl)-10-cyclopropanecarbonyldocetaxel]			4.9	0.092	0.45		
COc1cccc(C(=O)O[C@H]2C3[C@](C)(C(=O)[C@H](OC(C)=O)C4=C(C)[C@@H](OC(=O)[C@H](O)[C@H](C=C(F)F)NC(=O)OC(C)(C)C)C[C@]2(O)C4(C)C)[C@@H](O)C[C@H]2OC[C@@]32OC(C)=O)c1 (stereo partly drawn) [SB-T-12851-1, 3′-Dephenyl-3′-(2,2-difluorovinyl)-2-debenzoyl-2-(3-methoxybenzoyl)-10-acetyldocetaxel]	0.25	1.5	6.0				
CC(=O)O[C@H]1C(=O)[C@@]2(C)C([C@H](OC(=O)c3cccc(F)c3)[C@]3(O)C[C@H](OC(=O)[C@H](O)[C@H](C=C(F)F)NC(=O)OC(C)(C)C)C(C)=C1C3(C)C)[C@]1(OC(C)=O)CO[C@@H]1C[C@@H]2O (stereo partly drawn) [SB-T-12851-2, 3′-Dephenyl-3′-(2,2-difluorovinyl)-2-debenzoyl-2-(3-fluorobenzoyl)-10-acetyldocetaxel]	0.13	1.53	12				
CC(=O)O[C@@]12CO[C@@H]1C[C@H](O)[C@@]1(C)C(=O)[C@H](OC(=O)N(C)C)C3=C(C)[C@@H](OC(=O)[C@H](O)[C@H](C=C(F)F)NC(=O)OC(C)(C)C)C[C@@](O)([C@@H](OC(=O)c4cccc(F)c4)C12)C3(C)C (stereo partly drawn) [SB-T-12854-2, 3′-Dephenyl-3′-(2,2-difluorovinyl)-2-debenzoyl-2-(3-fluorobenzoyl)-10-dimethylcarbamoyldocetaxel]			9.4			0.17	2.25
CC(=O)O[C@H]1C(=O)[C@@]2(C)C([C@H](OC(=O)c3cccc(N=[N+]=[N-])c3)[C@]3(O)C[C@H](OC(=O)[C@H](O)[C@H](C=C(F)F)NC(=O)OC(C)(C)C)C(C)=C1C3(C)C)[C@]1(OC(C)=O)CO[C@@H]1C[C@@H]2O (stereo partly drawn) [SB-T-12851-3, 3′-Dephenyl-3′-(2,2-difluorovinyl)-2-debenzoyl-2-(3-azidobenzoyl)-10-acetyldocetaxel]	0.092	0.34	3.7				
CCC(=O)O[C@H]1C(=O)[C@@]2(C)C([C@H](OC(=O)c3cccc(Cl)c3)[C@]3(O)C[C@H](OC(=O)[C@H](O)[C@H](C=C(F)F)NC(=O)OC(C)(C)C)C(C)=C1C3(C)C)[C@]1(OC(C)=O)CO[C@@H]1C[C@@H]2O (stereo partly drawn) [SB-T-12853-4, 3′-Dephenyl-3′-(2,2-difluorovinyl)-2-debenzoyl-2-(3-chlorobenzoyl)-10-propanoyldocetaxel]	0.13	0.45	3.5				
CC(=O)O[C@@]12CO[C@@H]1C[C@H](O)[C@@]1(C)C(=O)[C@H](OC(=O)N(C)C)C3=C(C)[C@@H](OC(=O)[C@H](O)[C@H](C=C(F)F)NC(=O)OC(C)(C)C)C[C@@](O)([C@@H](OC(=O)c4cccc(N=[N+]=[N-])c4)C12)C3(C)C (stereo partly drawn) [SB-T-12854-3, 3′-Dephenyl-3′-(2,2-difluorovinyl)-2-debenzoyl-2-(3-azidobenzoyl)-10-dimethylcarbamoyldocetaxel]			3.7			0.13	0.45
CCC(=O)O[C@H]1C(=O)[C@@]2(C)C([C@H](OC(=O)c3cccc(OC)c3)[C@]3(O)C[C@H](OC(=O)[C@H](O)[C@H](C=C(F)F)NC(=O)OC(C)(C)C)C(C)=C1C3(C)C)[C@]1(OC(C)=O)CO[C@@H]1C[C@@H]2O (stereo partly drawn) [SB-T-12853-1, 3′-Dephenyl-3′-(2,2-difluorovinyl)-2-debenzoyl-2-(3-methoxybenzoyl)-10-propanoyldocetaxel]	0.34	0.57	1.7				
COc1cccc(C(=O)O[C@H]2[C@@H]3[C@]4(OC(C)=O)CO[C@@H]4C[C@H](O)[C@@]3(C)C(=O)[C@H](OC(=O)C3CC3)C3=C(C)[C@@H](OC(=O)[C@H](O)[C@H](C=C(F)F)NC(=O)OC(C)(C)C)C[C@]2(O)C3(C)C)c1 [SB-T-12852-1, 3′-Dephenyl-3′-(2,2-difluorovinyl)-2-debenzoyl-2-(3-methoxybenzoyl)-10-cyclopropanecarbonyldocetaxel]			5.2	0.092	0.48		
CC(=O)O[C@@]12CO[C@@H]1C[C@H](O)[C@@]1(C)C(=O)[C@H](OC(=O)C3CC3)C3=C(C)[C@@H](OC(=O)[C@H](O)[C@H](C=C(F)F)NC(=O)OC(C)(C)C)C[C@@](O)([C@@H](OC(=O)c4ccccc4)[C@H]21)C3(C)C [SB-T-12852, 3′-dephenyl-3′-(2,2-difluorovinyl)-10-cyclopropanecarbonyl-docetaxel]			53	0.12	6.03		
CC(=O)OC12COC1CC(O)C1(C)C(=O)C(OC(=O)C3CC3)C3=C(C)C(OC(=O)C(O)C(C=C(F)F)NC(=O)OC(C)(C)C)CC(O)(C(OC(=O)c4cccc(F)c4)C21)C3(C)C (stereo not drawn) [SB-T-12852-2, 3′-Dephenyl-3′-(2,2-difluorovinyl)-2-debenzoyl-2-(3-fluorobenzoyl)-10-cyclopropanecarbonyldocetaxel]			23	0.076	1.72		
COC(=O)O[C@H]1C(=O)[C@@]2(C)C([C@H](OC(=O)c3cccc(OC)c3)[C@]3(O)C[C@H](OC(=O)[C@H](O)[C@H](C=C(F)F)NC(=O)OC(C)(C)C)C(C)=C1C3(C)C)[C@]1(OC(C)=O)CO[C@@H]1C[C@@H]2O (stereo partly drawn) [SB-T-12855-1, 3′-Dephenyl-3′-(2,2-difluorovinyl)-2-debenzoyl-2-(3-methoxybenzoyl)-10-methoxycarbonyldocetaxel]	0.078	0.5	6.4				

Reference: patent US7981926B2, “Fluorotaxoids” (Research Foundation of State University of New York, priority 2005, dated 2011)
